Measurements from paper PMC5041959, “A high-content EMT screen identifies multiple receptor tyrosine kinase inhibitors with activity on TGFβ receptor” (Oncotarget, 2016).
Like-named read-outs stand apart in the source and are kept apart here.

Legend:
ROCK1 = ROCK1 (Homo sapiens, UniProt Q13464); test: Biochemical kinase profiling (33PanQinase radiometric assay)
FGFR4 = FGFR4 (Homo sapiens, UniProt P22455); test: as above
ROCK2 = ROCK2 (Homo sapiens, UniProt O75116); test: as above
FGFR2 = FGFR2 (Homo sapiens, UniProt P21802); test: as above; conditions: read-out: FGFR2 IC50; ATP at apparent Km
Sequence of FGFR2 (P21802 22-821): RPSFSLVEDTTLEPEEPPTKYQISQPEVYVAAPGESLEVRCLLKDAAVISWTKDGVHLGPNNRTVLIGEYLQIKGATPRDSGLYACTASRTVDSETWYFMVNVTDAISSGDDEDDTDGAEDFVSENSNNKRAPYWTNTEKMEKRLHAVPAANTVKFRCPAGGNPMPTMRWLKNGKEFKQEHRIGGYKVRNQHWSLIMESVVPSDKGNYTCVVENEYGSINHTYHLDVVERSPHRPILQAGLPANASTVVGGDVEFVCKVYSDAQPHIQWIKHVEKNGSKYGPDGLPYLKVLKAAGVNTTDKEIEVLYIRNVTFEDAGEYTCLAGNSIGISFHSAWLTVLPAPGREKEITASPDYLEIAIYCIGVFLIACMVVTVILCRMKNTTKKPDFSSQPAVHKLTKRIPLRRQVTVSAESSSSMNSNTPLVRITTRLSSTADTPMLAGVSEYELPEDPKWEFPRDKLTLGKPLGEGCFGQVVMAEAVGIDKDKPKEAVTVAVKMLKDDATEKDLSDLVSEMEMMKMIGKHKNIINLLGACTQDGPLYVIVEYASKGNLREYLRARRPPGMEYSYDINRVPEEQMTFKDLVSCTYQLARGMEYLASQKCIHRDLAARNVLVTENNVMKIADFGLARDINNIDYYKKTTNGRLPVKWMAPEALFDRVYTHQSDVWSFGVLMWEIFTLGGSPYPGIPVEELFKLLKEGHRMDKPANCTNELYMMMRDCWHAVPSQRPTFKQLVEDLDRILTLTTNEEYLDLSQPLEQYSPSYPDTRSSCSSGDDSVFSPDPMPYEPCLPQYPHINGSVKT

NMuMG cells = test: High-content microscopy EMT screen in TGFβ-treated NMuMG cells (FA, SF, FN, cell count); assay type: cell-based, murine
FGFR3 = FGFR3 (Homo sapiens, UniProt P22607); test: Biochemical kinase profiling (33PanQinase radiometric assay); conditions: read-out: FGFR3 IC50; ATP at apparent Km
FGFR1 = FGFR1 (Homo sapiens, UniProt P11362); test: as above; conditions: read-out: FGFR1 IC50; ATP at apparent Km
TGFBR1 = target: T1, TGFBR1 (Homo sapiens, UniProt P36897); test: as above
T1 sequence (P36897 34-503): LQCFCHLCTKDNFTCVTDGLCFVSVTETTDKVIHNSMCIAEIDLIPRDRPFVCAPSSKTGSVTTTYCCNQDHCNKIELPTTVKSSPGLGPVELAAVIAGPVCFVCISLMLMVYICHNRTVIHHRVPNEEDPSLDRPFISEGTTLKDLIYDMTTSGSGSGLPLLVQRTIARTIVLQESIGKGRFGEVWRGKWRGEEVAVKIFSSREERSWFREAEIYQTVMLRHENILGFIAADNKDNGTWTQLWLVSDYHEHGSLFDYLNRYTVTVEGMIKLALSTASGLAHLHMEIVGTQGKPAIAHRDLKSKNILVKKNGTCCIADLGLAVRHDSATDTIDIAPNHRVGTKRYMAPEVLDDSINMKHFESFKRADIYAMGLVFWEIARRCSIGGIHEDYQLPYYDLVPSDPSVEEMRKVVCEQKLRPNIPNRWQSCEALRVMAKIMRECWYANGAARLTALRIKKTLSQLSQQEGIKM

TGFBR2 = TGFBR2 (Homo sapiens, UniProt P37173); test: as above
Sequence of TGFBR2 (P37173 23-567): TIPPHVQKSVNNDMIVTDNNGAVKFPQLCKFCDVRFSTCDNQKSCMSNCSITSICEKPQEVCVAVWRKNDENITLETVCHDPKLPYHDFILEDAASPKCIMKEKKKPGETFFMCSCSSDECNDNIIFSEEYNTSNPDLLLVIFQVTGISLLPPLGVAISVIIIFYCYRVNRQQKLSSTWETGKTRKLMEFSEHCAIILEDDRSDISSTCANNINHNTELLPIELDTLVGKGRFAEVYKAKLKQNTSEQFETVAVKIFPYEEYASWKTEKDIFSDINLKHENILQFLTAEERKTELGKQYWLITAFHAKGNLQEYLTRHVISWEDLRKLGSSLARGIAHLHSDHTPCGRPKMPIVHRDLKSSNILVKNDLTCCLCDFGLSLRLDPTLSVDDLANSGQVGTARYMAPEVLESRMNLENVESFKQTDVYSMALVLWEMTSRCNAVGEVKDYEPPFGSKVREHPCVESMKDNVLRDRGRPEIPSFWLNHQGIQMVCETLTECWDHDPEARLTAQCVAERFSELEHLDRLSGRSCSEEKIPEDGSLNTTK

SRC = SRC (Homo sapiens, UniProt P12931); test: as above
PDGFRA = PDGFRA (Homo sapiens, UniProt P16234); test: as above
Sequence of PDGFRA (P16234 24-1089): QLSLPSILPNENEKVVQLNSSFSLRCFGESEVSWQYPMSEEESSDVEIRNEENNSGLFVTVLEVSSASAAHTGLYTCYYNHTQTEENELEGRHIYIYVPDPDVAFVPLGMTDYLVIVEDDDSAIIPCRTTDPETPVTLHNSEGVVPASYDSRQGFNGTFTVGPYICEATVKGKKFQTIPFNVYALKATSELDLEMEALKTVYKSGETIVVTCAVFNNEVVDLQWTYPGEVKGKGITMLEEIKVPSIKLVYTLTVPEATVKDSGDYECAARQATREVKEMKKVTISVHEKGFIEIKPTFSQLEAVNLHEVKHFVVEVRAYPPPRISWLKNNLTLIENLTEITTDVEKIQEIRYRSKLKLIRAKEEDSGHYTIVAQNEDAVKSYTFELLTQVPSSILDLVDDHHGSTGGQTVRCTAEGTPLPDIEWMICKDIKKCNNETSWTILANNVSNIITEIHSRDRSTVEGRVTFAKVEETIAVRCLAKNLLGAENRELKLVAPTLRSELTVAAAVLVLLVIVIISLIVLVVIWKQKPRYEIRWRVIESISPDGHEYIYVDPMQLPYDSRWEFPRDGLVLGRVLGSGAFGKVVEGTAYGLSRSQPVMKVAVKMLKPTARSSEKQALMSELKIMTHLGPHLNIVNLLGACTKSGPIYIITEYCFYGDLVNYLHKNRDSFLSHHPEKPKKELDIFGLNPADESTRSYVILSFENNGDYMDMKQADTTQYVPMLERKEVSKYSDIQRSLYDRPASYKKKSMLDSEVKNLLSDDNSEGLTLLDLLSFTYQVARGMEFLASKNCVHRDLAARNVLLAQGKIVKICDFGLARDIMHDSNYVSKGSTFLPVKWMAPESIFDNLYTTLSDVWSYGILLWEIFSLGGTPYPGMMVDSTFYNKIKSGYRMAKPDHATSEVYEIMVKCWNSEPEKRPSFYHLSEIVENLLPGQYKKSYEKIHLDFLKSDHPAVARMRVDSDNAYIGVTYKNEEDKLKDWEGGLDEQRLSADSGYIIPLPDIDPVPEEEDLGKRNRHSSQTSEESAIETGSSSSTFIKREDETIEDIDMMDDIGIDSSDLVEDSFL

PDGFRB = PDGFRB (Homo sapiens, UniProt P09619); test: as above
Sequence of PDGFRB (P09619 33-1106): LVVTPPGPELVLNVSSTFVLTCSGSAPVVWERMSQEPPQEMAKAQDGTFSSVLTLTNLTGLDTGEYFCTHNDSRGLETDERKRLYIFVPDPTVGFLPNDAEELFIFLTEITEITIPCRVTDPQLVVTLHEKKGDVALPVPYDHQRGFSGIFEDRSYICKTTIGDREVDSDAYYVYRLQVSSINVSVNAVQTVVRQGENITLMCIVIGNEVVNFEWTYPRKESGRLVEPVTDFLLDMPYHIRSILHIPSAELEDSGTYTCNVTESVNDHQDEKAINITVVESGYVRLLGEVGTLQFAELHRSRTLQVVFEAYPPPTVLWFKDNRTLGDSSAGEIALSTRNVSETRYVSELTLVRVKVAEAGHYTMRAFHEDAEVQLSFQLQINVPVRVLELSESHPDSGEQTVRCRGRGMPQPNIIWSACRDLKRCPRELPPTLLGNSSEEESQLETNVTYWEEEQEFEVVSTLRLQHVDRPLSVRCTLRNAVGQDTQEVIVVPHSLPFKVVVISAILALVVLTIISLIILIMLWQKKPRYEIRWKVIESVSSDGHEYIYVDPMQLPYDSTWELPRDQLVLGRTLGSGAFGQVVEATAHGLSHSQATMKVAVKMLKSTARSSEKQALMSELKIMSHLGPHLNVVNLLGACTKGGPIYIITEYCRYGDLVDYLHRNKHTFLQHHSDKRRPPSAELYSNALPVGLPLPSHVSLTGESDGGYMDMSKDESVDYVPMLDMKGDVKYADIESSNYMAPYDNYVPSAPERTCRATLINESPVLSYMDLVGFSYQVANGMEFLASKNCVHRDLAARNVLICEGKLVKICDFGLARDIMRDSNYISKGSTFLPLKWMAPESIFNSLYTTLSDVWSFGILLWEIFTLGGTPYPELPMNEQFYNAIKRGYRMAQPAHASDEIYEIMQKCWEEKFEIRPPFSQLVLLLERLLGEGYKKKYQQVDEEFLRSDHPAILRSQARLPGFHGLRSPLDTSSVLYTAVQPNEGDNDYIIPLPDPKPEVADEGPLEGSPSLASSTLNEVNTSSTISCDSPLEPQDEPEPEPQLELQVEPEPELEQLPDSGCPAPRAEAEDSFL

Py2T cells = test: High-content microscopy EMT assay in TGFβ-treated Py2T breast cancer cells; assay type: cell-based, murine
ROCK = ROCK cellular assay (MLC Thr18/Ser19 phosphorylation ELISA in A7r5 cells); assay type: cell-based, rat; conditions: 90 min compound
[1] = read-out: FGFR4 IC50, ATP at apparent Km
[2] = NMuMG, TGFβ1 2 ng/ml plus compound, 4 days; parameter decreased by 50%
[3] = NMuMG; cell count decreased by 50% compared to DMSO control; read-out: Tox IC50
[4] = NMuMG; compared to reference 10 μM SB-431542 = 100%
[5] = read-out: TGFBR1 IC50, ATP at apparent Km
[6] = read-out: TGFBR2 IC50, ATP at apparent Km
[7] = Mus musculus; NMuMG; cell count decreased by 50% compared to DMSO control; read-out: Tox IC50
[8] = NMuMG, TGFβ1 2 ng/ml plus compound, 4 days; parameter decreased by 50%; read-out: FA IC50 (focal adhesion formation)
[9] = NMuMG, TGFβ1 2 ng/ml plus compound, 4 days; parameter decreased by 50%; read-out: FN IC50 (fibronectin patch formation)
[10] = NMuMG, TGFβ1 2 ng/ml plus compound, 4 days; parameter decreased by 50%; read-out: SF IC50 (stress fibers)
[11] = NMuMG; cell count increased by 50% compared to 100% with 10 μM SB-431542; read-out: CCI IC50 (cell count increase)
[12] = read-out: PDGFRA IC50, ATP at apparent Km
[13] = read-out: PDGFRB IC50, ATP at apparent Km
[14] = Mus musculus, read-out: CCI IC50 (cell count increase)
[15] = Mus musculus, read-out: Emax (maximal effect on cell count)
[16] = Mus musculus, 96 h; NMuMG, TGFβ1 2 ng/ml plus compound, 4 days; parameter decreased by 50%; read-out: FA IC50 (focal adhesion formation)
[17] = Mus musculus, 96 h; NMuMG, TGFβ1 2 ng/ml plus compound, 4 days; parameter decreased by 50%; read-out: FN IC50 (fibronectin patch formation)
[18] = Mus musculus, 96 h; NMuMG, TGFβ1 2 ng/ml plus compound, 4 days; parameter decreased by 50%; read-out: SF IC50 (stress fibers)
[19] = Mus musculus; NMuMG; mean of IC50 values obtained for FA, SF, FN; read-out: EMT (FA/SF/FN) combined IC50
[20] = Mus musculus; read-out: CCI IC50 (cell count increase)
[21] = Mus musculus; read-out: Emax (maximal effect on cell count)

Sequence of ROCK2 (O75116 whole entry): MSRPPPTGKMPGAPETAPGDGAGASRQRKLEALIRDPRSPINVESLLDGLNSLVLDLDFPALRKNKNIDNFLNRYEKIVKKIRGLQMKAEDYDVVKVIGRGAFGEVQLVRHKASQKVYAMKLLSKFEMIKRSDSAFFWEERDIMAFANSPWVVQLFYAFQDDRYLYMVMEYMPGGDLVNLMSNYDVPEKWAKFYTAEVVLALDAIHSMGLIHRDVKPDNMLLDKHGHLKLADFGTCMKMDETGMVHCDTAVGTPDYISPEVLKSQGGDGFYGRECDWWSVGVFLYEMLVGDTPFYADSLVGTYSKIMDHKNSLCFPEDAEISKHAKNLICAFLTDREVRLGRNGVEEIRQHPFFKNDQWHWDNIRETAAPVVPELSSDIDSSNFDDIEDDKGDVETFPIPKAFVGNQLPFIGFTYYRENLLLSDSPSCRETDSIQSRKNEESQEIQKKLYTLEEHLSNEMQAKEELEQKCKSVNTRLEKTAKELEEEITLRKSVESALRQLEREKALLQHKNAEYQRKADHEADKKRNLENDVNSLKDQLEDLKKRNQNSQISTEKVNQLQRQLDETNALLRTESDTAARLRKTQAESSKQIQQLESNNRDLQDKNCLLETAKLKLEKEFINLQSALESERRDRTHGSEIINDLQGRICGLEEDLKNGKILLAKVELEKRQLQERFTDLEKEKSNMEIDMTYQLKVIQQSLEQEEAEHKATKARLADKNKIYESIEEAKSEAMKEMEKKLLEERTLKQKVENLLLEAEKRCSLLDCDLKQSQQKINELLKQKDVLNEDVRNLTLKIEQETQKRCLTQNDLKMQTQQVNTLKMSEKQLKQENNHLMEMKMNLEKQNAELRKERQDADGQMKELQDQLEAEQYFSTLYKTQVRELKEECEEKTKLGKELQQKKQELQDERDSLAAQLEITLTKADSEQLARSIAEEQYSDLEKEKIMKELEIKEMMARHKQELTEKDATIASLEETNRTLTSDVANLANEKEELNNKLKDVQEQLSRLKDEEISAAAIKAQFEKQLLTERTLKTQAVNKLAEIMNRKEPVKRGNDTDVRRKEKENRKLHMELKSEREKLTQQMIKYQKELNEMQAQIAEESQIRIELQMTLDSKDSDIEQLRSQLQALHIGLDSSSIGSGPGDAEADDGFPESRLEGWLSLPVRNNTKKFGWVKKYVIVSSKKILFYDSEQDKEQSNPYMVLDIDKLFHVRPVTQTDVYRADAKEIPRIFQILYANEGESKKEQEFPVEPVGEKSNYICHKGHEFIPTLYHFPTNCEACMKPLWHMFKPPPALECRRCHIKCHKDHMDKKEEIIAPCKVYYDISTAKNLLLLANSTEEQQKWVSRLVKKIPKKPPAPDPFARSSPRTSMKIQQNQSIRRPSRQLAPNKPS

SMILES | IC50 (FGFR4; [1]) | IC50 (FGFR2) | IC50 (TGFBR1; [5]) | IC50 (TGFBR2; [6]) | FA IC50 (focal adhesion formation) (NMuMG cells; [2]) | FN IC50 (fibronectin patch formation) (NMuMG cells; [2]) | SF IC50 (stress fibers) (NMuMG cells; [2]) | IC50 (NMuMG cells; [3]) | Emax (maximal effect on cell count) (NMuMG cells; [4]) | IC50 (ROCK2) | IC50 (NMuMG cells; [7]) | IC50 (NMuMG cells; [8]) | IC50 (NMuMG cells; [9]) | IC50 (NMuMG cells; [10]) | IC50 (NMuMG cells; [11]) | IC50 (PDGFRA; [12]) | IC50 (PDGFRB; [13]) | IC50 (NMuMG cells; [16]) | IC50 (NMuMG cells; [17]) | IC50 (NMuMG cells; [18]) | further results
CCN(CC)CCCCNc1ncc2cc(-c3cc(OC)cc(OC)c3)c(NC(=O)NC(C)(C)C)nc2n1 [PD-173074] | – | – | – | – | n.m. | n.m. | n.m. | – | – | > 10 µM | 3.23 µM | – | – | – | – | – | – | – | – | – | IC50 (SRC): 6.73 µM; IC50 (ROCK1): > 10 µM; IC50 (FGFR4): 0.418 µM; Emax (maximal effect on cell count) (NMuMG cells): n.m.; IC50 (PDGFRA): > 10 µM; IC50 (TGFBR1): > 10 µM; IC50 (TGFBR2): > 10 µM; IC50 (PDGFRB): 3.39 µM
CCn1c(-c2nonc2N)nc2cncc(C(=O)N3CC[C@H](N)C3)c21 [SB-772077B] | – | – | – | – | – | – | – | – | – | – | 5.33 µM | – | – | – | – | – | – | 0.051 µM | 0.054 µM | 0.029 µM | IC50 (Py2T cells; [14]): 0.0284 µM; Emax (Py2T cells; [15]): 63.6%; IC50 (Py2T cells; Mus musculus, read-out: Tox IC50): 1.96 µM; IC50 (NMuMG cells; [14]): 0.0505 µM; Emax (NMuMG cells; [15]): 30.5%; IC50 (NMuMG cells; [19]): 0.0447 µM; IC50 (ROCK; Rattus norvegicus, 1.5 h): 0.028 µM
CN(C)CCOc1cc(-c2cn[nH]c2)ccc1NC(=O)C1COc2ccccc2O1 (centres unmarked) [SR-3677] | – | – | – | – | – | – | – | – | – | 0.076 µM | > 25 µM | – | – | – | – | – | – | 0.16 µM | 0.179 µM | 0.031 µM | IC50 (Py2T cells; Mus musculus, 96 h; Py2T, TGFβ plus compound, 4 days; read-out: FA IC50 (focal adhesions)): 0.415 µM; IC50 (Py2T cells; Mus musculus, 96 h; Py2T, TGFβ plus compound, 4 days; read-out: FN IC50 (fibronectin patches)): 0.521 µM; IC50 (Py2T cells; Mus musculus, 96 h; Py2T, TGFβ plus compound, 4 days; read-out: SF IC50 (stress fibers)): 0.089 µM; IC50 (Py2T cells; Mus musculus; Py2T; cell count decreased by 50% compared to DMSO control; read-out: Tox IC50): 6.81 µM; IC50 (Py2T cells; [20]): 0.015 µM; Emax (Py2T cells; [21]): 51%; IC50 (NMuMG cells; [19]): 0.123 µM; IC50 (NMuMG cells; [20]): 0.0506 µM; Emax (NMuMG cells; [21]): 34.7%
Cc1[nH]c(/C=C2\C(=O)Nc3ccccc32)c(C)c1CCC(=O)O [TSU-68] | – | 0.59 µM | > 10 µM | > 10 µM | – | – | – | > 10 µM | 1.7% | – | – | > 10 µM | > 10 µM | > 10 µM | > 10 µM | 0.0782 µM | 0.103 µM | – | – | – | IC50 (ROCK): > 10 µM

Continued, in another order:

IC50 (FGFR4; [1]) | IC50 (FGFR2) | IC50 (TGFBR1; [5]) | IC50 (TGFBR2; [6]) | SMILES | FA IC50 (focal adhesion formation) (NMuMG cells; [2]) | FN IC50 (fibronectin patch formation) (NMuMG cells; [2]) | SF IC50 (stress fibers) (NMuMG cells; [2]) | IC50 (NMuMG cells; [3]) | Emax (maximal effect on cell count) (NMuMG cells; [4]) | IC50 (ROCK2) | IC50 (NMuMG cells; [7]) | IC50 (NMuMG cells; [8]) | IC50 (NMuMG cells; [9]) | IC50 (NMuMG cells; [10]) | IC50 (NMuMG cells; [11]) | IC50 (PDGFRA; [12]) | IC50 (PDGFRB; [13]) | IC50 (NMuMG cells; [16]) | IC50 (NMuMG cells; [17]) | IC50 (NMuMG cells; [18]) | further results
0.491 µM | 0.0102 µM | > 10 µM | > 10 µM | COc1cc(OC)cc(-c2cc3cnc(N)nc3nc2NC(=O)NC(C)(C)C)c1 [PD-166866] | n.m. | n.m. | n.m. | 3.36 µM | n.m. | – | – | – | – | – | – | – | – | – | – | – | IC50 (ROCK1; read-out: ROCK1 IC50, ATP at apparent Km): > 10 µM; IC50 (ROCK2; read-out: ROCK2 IC50, ATP at apparent Km): > 10 µM; CCI IC50 (cell count increase) (NMuMG cells; NMuMG; cell count increased by 50% compared to 100% with 10 μM SB-431542): n.m.; IC50 (FGFR3): 0.0493 µM; IC50 (FGFR1): 0.0225 µM
0.622 µM | 0.456 µM | 0.297 µM | 1.31 µM | Cc1ccc(-c2nn(C(C)(C)C)c3ncnc(N)c23)cc1 [PP1] | – | – | – | 11.4 µM | 22.3% | – | – | 0.91 µM | 1.52 µM | 1.14 µM | 0.374 µM | 3.69 µM | 0.132 µM | – | – | – | IC50 (NMuMG cells; NMuMG; mean of IC50 values obtained for FA, SF, FN; read-out: EMT (FA/SF/FN) combined IC50): 1.19 µM
